Data taken from paper PMC4625925, “One amino acid makes the difference: the formation of ent-kaurene and 16α-hydroxy-ent-kaurane by diterpene synthases in poplar” (BMC Plant Biology, 2015).

Key:
PtTPS17 = molecular target: T1, PtTPS17 (Populus trichocarpa, UniProt A0A0S1TFB5); assay: GC-MS product analysis; assay type: biochemical; details: 50 µM GGPP, 5 mM MgCl2, pH 7.5, 25 °C, 2 h; product ent-CPP detected as copalol
T1 construct: N-terminally truncated (delta 65 aa, transit peptide removed), pET200 (N-terminal His tag), E. coli BL21(DE3), partially purified
T1 sequence (A0A0S1TFB5 66-795): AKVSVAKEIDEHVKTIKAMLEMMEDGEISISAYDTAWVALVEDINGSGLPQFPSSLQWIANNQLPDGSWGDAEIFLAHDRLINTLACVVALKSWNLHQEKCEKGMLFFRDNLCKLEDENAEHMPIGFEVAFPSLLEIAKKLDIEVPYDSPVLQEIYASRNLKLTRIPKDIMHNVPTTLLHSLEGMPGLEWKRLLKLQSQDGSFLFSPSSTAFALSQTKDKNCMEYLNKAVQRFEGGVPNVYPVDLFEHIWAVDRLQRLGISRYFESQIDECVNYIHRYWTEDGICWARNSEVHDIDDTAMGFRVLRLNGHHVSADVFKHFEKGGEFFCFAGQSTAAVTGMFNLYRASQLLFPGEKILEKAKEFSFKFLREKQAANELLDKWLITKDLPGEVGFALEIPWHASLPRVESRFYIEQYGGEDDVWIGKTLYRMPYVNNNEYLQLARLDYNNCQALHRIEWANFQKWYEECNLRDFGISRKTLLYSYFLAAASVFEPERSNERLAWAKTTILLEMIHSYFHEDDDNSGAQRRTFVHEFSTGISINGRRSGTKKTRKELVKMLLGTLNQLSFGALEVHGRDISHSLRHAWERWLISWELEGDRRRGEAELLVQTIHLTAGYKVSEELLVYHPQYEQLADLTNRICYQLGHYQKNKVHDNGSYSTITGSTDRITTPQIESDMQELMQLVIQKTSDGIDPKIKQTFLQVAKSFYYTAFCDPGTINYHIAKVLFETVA

PtTPS19 = molecular target: T2, PtTPS19 (Populus trichocarpa, UniProt A0A0S1TJ32); assay: GC-MS product analysis, ent-CPP made in situ; assay type: biochemical; details: ent-CPP from GGPP by coupled PtTPS17; 5 mM MgCl2, pH 7.5, 25 °C, 2 h
T2 construct: N-terminally truncated (delta 42 aa, transit peptide removed), pET200 (N-terminal His tag), E. coli BL21(DE3), partially purified
T2 sequence (A0A0S1TJ32 entry or part of it): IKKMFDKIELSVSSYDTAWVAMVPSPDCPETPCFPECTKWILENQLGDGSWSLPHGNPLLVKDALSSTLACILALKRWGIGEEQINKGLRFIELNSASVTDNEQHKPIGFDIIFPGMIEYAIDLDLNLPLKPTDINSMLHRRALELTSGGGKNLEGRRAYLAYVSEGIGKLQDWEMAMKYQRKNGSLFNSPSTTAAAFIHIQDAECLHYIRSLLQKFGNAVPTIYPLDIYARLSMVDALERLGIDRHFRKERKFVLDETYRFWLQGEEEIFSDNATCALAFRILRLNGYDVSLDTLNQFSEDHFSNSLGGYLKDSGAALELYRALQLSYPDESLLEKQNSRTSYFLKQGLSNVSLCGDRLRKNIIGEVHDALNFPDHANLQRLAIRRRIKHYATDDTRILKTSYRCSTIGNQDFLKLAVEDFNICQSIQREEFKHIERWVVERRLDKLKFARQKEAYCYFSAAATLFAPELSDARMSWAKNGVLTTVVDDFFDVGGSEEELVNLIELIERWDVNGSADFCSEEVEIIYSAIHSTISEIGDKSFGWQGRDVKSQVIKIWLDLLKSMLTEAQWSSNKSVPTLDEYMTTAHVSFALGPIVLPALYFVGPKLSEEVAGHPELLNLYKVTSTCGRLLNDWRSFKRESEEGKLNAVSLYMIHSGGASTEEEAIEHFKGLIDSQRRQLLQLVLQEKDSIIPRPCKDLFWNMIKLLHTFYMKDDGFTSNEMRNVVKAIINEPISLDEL

| Structure (SMILES) | GC-MS product analysis (PtTPS17) | GC-MS product analysis, ent-CPP made in situ (PtTPS19) |
| --- | --- | --- |
| CC(C)=CCC/C(C)=C/CC/C(C)=C/CC/C(C)=C/COP(=O)(O)OP(=O)(O)O [(E,E,E)-GGPP] | When PtTPS17 was incubated with GGPP, copalol was detected | – |
| C=C1CC[C@@H]2C(C)(C)CCC[C@@]2(C)[C@@H]1CC/C(C)=C/COP(=O)(O)OP(=O)(O)O [ent-CPP] | – | PtTPS19 converted ent-CPP into ent-kaurene |
